Reference: patent publication US11319322B2, “Substituted aryl ether compound, preparation method thereof, pharmaceutical composition and use thereof” (Xiamen University, priority 2017, dated 2022)

Experiments:
Type in all cases: cell-based
[1] = biological target: T1, CCDC6-RET-BaF3 (Homo sapiens, UniProt P07949); assay: Growth inhibition of CCDC6-RET-BaF3 cells stably transfected with kinase (MTS); details: 48 h, read-out: CCDC6-RET (IC50/nM)
T1 construct: fused on or other part: Q16204 (Coiled-coil domain-containing protein 6)
T1 sequence (P07949 whole entry, change not shown, the tested form may be a part): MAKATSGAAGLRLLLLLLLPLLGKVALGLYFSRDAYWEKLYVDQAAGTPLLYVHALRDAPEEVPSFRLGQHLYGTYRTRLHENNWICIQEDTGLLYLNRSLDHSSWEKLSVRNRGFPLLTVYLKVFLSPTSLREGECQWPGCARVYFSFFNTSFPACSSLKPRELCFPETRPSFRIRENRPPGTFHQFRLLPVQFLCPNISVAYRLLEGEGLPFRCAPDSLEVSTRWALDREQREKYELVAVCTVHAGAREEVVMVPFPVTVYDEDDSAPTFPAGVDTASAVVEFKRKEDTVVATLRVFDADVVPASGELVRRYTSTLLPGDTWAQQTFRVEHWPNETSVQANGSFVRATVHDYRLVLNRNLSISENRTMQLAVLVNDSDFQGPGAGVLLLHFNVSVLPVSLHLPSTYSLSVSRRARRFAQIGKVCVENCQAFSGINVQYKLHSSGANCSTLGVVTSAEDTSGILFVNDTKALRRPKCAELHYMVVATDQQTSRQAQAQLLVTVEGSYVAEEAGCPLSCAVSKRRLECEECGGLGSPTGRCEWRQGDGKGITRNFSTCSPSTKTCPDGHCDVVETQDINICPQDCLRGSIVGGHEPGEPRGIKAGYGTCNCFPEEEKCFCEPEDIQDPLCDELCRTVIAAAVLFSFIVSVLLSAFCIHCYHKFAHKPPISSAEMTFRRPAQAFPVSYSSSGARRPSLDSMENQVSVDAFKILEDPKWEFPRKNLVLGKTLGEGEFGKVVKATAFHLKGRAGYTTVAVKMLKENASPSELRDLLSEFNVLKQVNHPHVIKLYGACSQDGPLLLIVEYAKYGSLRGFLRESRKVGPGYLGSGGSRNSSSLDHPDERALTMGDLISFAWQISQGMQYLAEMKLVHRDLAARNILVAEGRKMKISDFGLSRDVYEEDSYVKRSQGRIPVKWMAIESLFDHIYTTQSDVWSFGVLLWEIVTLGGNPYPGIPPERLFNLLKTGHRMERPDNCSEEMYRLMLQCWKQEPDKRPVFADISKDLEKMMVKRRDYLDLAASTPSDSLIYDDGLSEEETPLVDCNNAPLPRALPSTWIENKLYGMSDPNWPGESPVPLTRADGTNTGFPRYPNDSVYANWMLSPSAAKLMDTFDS
In short: (§1)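 BaF3 cells stably expressing CCDC6-RET or KIF5B-RET, or parental BaF3, 2×10^4 cells/well, treated 48 h at 37 °C with 8-point 1:3 dilutions from 10 μM (0.1% DMSO). MTS/PES added 1–4 h, OD490 read; inhibition versus DMSO and blank gave IC50.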

[2] = tested on: wild-type BaF3; assay: Growth inhibition of wild-type BaF3 cells, broad-spectrum toxicity (MTS); details: Mus musculus, 48 h, read-out: WT Ba/F3 (IC50/nM)
Procedure: Growth inhibitory activity of compounds on cell lines stably transfected with kinase
The activity of compounds against kinase RET is evaluated by their effect of inhibiting growth of cell lines stably transfected with kinase CCDC6-RET-BaF3, KIF5B-RET-BaF3, and wild-type BaF3 (Proc. Natl. Acad. Sci. USA., 2006, 103, 3153-8.). The growth of the cell lines stably transfected with kinase CCDC6-RET-BaF3, KIF5B-RET-BaF3 depends on their kinase activity. If a compound can inhibit the activity of the kinase RET per se or the activity of the RET signaling pathway, the compound can inhibit the growth of BaF3 cells stably transfected with kinase. […] Therefore, a larger ratio between IC50 of a compound to wild-type BaF3 and IC50 of the compound to the cell lines stably transfected with kinase CCDC6-RET-BaF3, KIF5B-RET-BaF3 indicates better targeting.
The specific test method is given as follows:
1) Medium: DMEM (Dulbecco's modified eagle medium) or RPMI 1640 (containing 10% fetal bovine serum, 100 μg/mL ampicillin, 100 μg/mL streptomycin).
2) Reagents: MTS reaction solution (containing 2 mg/mL of MTS [3-(4,5-dimethylthiazol-2-yl)-5-(3-carboxymethoxyphenyl)-2-(4-sulfophenyl)-2H-tetrazolium, inner Salt]; 100 μg/mL PES (phenazine […])).
3) Compound test: cells stably transfected with kinase (CCDC6-RET-BaF3, KIF5B-RET-BaF3) or wild-type BaF3 cells (2×10^4 cells/well) were incubated into a 96-well culture plate, the volume of cell culture fluid was 90 μL, and then 10 μL of the compound at each gradient concentration was added (the highest concentration was 10 μM, which was diluted stepwise by ⅓, and 8 concentration points were set in total; the system contained 0.1% DMSO (dimethyl sulfoxide)). The cell plate with uniformly mixed compound was cultured in a cell culture incubator (37° C.; 5% CO2) for 48 h, then 20 μL of MTS reaction solution was added, uniformly mixed and incubated in the cell culture incubator (37° C.; 5% CO2) for 1-4 hr, OD values at 490 nm were measured by a microplate reader (VARIOSKAN FLASH, Thermo). Three parallels were set in each group of experiments, with 0.1% (a final concentration) DMSO as a negative control, and a medium without cells or compounds as a blank control. The cell growth inhibition rate was calculated by the following formula: Cell growth inhibition rate %=1−(ODexperimental group−ODblank group)/(ODnegative group−ODblank group)×100%
4) IC50 calculation: The semi-inhibitory concentration of the compound acting on cell growth was calculated using GradPad Prism 5 software according to the measured cell growth inhibition rate.

[3] = biological target: T2, KIF5B-RET-BaF3 (Homo sapiens, UniProt P07949); assay: Growth inhibition of KIF5B-RET-BaF3 cells stably transfected with kinase (MTS); details: 48 h, read-out: KIF5B-RET (IC50/nM)
T2 construct: fused on or other part: P33176 (Kinesin-1 heavy chain)
T2 sequence (P07949 whole entry, change not shown, the tested form may be a part): as above
In short: as §1

| GI50 [1] [nM] | GI50 [3] [nM] | Compound | IC50 [2] [nM] |
| --- | --- | --- | --- |
| 187 | 325 | Cc1ccc(Oc2nc(-c3ccncc3)nc3ccn(C)c23)cc1C(=O)Nc1cc(CN2CCN(C)CC2)cc(C(F)(F)F)c1 [III-r-4] | 1380 |
| 431 | 835 | CN1CCN(Cc2ccc(NC(=O)c3cc(Oc4nc(-c5ccncc5)nc5ccn(C)c45)ccc3-c3ccncc3)cc2C(F)(F)F)CC1 [III-v-1] | > 10000 |
| 2910 | 8450 | Cc1ccc(C(=O)Nc2cccc(C(F)(F)F)c2)cc1Oc1nc(-c2ccncc2)nc2nn(C)cc12 [IV-e-2] | 2220 |
| 1460 | 1460 | CN1CCN(Cc2ccc(NC(=O)c3cccc(Oc4cc(-c5cccnc5)nc5[nH]ccc45)c3)cc2C(F)(F)F)CC1 [V-I-1] | 2070 |
| 169 | 169 | CN1CCN(Cc2ccc(NC(=O)c3cccc(Oc4cc(-c5ccncc5)nc5[nH]ccc45)c3)cc2C(F)(F)F)CC1 [V-I-2] | 3400 |
| 587 | 595 | CN1CCN(Cc2ccc(NC(=O)c3cccc(Oc4cc(-c5cccnc5)nc5c4ccn5C)c3)cc2C(F)(F)F)CC1 [V-I-3] | 1240 |
| 337 | 143 | CN1CCN(Cc2ccc(NC(=O)c3cccc(Oc4cc(-c5ccncc5)nc5c4ccn5C)c3)cc2C(F)(F)F)CC1 [V-I-4] | 1420 |
| 1020 | 473 | Cc1ccc(C(=O)Nc2ccc(CN3CCN(C)CC3)c(C(F)(F)F)c2)cc1Oc1cc(-c2cccnc2)nc2[nH]ccc12 [V-m-1] | 1380 |
| 1350 | 978 | Cc1ccc(C(=O)Nc2ccc(CN3CCN(C)CC3)c(C(F)(F)F)c2)cc1Oc1cc(-c2ccncc2)nc2[nH]ccc12 [V-m-2] | 905 |
| 1170 | 613 | Cc1ccc(C(=O)Nc2ccc(CN3CCN(C)CC3)c(C(F)(F)F)c2)cc1Oc1cc(-c2cccnc2)nc2c1ccn2C [V-m-3] | 3370 |
| 1240 | 811 | Cc1ccc(C(=O)Nc2ccc(CN3CCN(C)CC3)c(C(F)(F)F)c2)cc1Oc1cc(-c2ccncc2)nc2c1ccn2C [V-m-4] | 1420 |
| 2900 | 2120 | Cc1ccc(Oc2cc(-c3cccnc3)nc3[nH]ccc23)cc1C(=O)Nc1ccc(CN2CCN(C)CC2)c(C(F)(F)F)c1 [V-n-1] | 2310 |

More lines, now with the values behind:

| Compound | GI50 [1] [nM] | GI50 [3] [nM] | IC50 [2] [nM] |
| --- | --- | --- | --- |
| Cc1ccc(-c2nc(Oc3cc(C(=O)Nc4ccc(CN5CCN(C)CC5)c(C(F)(F)F)c4)ccc3C)c3c(ccn3C)n2)cc1 [III-m-12] | 4020 | 4280 | 3580 |
| Cc1ccc(C(=O)Nc2ccc(CN3CCN(C)CC3)c(C(F)(F)F)c2)cc1Oc1nc(-c2cccc(Cl)c2)nc2ccn(C)c12 [III-m-13] | 3510 | 3000 | 3390 |
| Cc1ccc(C(=O)Nc2ccc(CN3CCN(C)CC3)c(C(F)(F)F)c2)cc1Oc1nc(-c2ccc(Cl)cc2)nc2ccn(C)c12 [III-m-14] | 2920 | 2720 | 3190 |
| Cc1ccc(C(=O)Nc2ccc(CN3CCN(C)CC3)c(C(F)(F)F)c2)cc1Oc1nc(-c2cccc(O)c2)nc2ccn(C)c12 [III-m-15] | 2960 | 3930 | 7210 |
| Cc1ccc(C(=O)Nc2ccc(CN3CCN(C)CC3)c(C(F)(F)F)c2)cc1Oc1nc(-c2ccc(O)cc2)nc2ccn(C)c12 [III-m-16] | 3670 | 4420 | 4360 |
| Cc1ccc(C(=O)Nc2ccc(CN3CCN(C)CC3)c(C(F)(F)F)c2)cc1Oc1nc(-c2ccsc2)nc2ccn(C)c12 [III-m-18] | 2960 | 2680 | 3510 |
| CNc1nc(Oc2cc(C(=O)Nc3ccc(CN4CCN(C)CC4)c(C(F)(F)F)c3)ccc2C)c2c(ccn2C)n1 [III-m-19] | 2510 | 3270 | 4020 |
| Cc1ccc(C(=O)Nc2ccc(CN3CCN(C)CC3)c(C(F)(F)F)c2)cc1Oc1nc(N2CCOCC2)nc2ccn(C)c12 [III-m-20] | 2960 | 2500 | 3550 |
| Cc1ccc(C(=O)Nc2ccc(CN3CCN(C)CC3)c(C(F)(F)F)c2)cc1Oc1nc(N2CC(C)OC(C)C2)nc2ccn(C)c12 (stereo not drawn) [III-m-21] | 3490 | 3750 | 2920 |
| Cc1ccc(C(=O)Nc2ccc(CN3CCN(C)CC3)c(C(F)(F)F)c2)cc1Oc1ncnc2ccn(C)c12 [III-m-22] | 597 | 854 | > 10000 |
| Cc1ccc(C(=O)Nc2ccc(CN3CCN(C)CC3)c(C(F)(F)F)c2)cc1Oc1nc(N2CCN(C)CC2)nc2ccn(C)c12 [III-m-23] | 515 | 477 | 464 |
| Cc1ccc(C(=O)Nc2ccc(CN3CCN(C)CC3)c(C(F)(F)F)c2)cc1Oc1nc(N(C)C)nc2ccn(C)c12 [III-m-24] | 3120 | 3230 | 3080 |
| Cc1ccc(C(=O)Nc2ccc(CN3CCN(C)CC3)c(C(F)(F)F)c2)cc1Oc1nc(-c2ccc(O)cc2)nc2cc[nH]c12 [III-m-26] | 1320 | 2900 | 4100 |
| Cc1ccc(C(=O)Nc2ccc(CN3CCN(C)CC3)c(C(F)(F)F)c2)cc1Oc1nc(-c2ccsc2)nc2cc[nH]c12 [III-m-27] | 1400 | 1500 | 34500 |
| CN1CCN(Cc2ccc(NC(=O)c3cc(Oc4nc(-c5cccnc5)nc5cc[nH]c45)ccc3Cl)cc2C(F)(F)F)CC1 [III-o-1] | 2150 | 1550 | 1630 |
| CN1CCN(Cc2ccc(NC(=O)c3cc(Oc4nc(-c5ccncc5)nc5cc[nH]c45)ccc3Cl)cc2C(F)(F)F)CC1 [III-o-2] | 17.4 | 13.4 | 1290 |
| CN1CCN(Cc2ccc(NC(=O)c3cc(Oc4nc(-c5cccnc5)nc5ccn(C)c45)ccc3Cl)cc2C(F)(F)F)CC1 [III-o-3] | 1280 | 1330 | 1300 |
| CN1CCN(Cc2cc(NC(=O)c3cccc(Oc4nc(-c5cccnc5)nc5cc[nH]c45)c3)cc(C(F)(F)F)c2)CC1 [III-p-1] | 4400 | 2920 | 3550 |
| CN1CCN(Cc2cc(NC(=O)c3cccc(Oc4nc(-c5ccncc5)nc5cc[nH]c45)c3)cc(C(F)(F)F)c2)CC1 [III-p-2] | 449 | 672 | > 10000 |
| CN1CCN(Cc2cc(NC(=O)c3cccc(Oc4nc(-c5ccncc5)nc5ccn(C)c45)c3)cc(C(F)(F)F)c2)CC1 [III-p-4] | 3230 | 3650 | > 10000 |
| Cc1ccc(C(=O)Nc2cc(CN3CCN(C)CC3)cc(C(F)(F)F)c2)cc1Oc1nc(-c2cccnc2)nc2cc[nH]c12 [III-q-1] | 1330 | 1540 | 1430 |
| Cc1ccc(C(=O)Nc2cc(CN3CCN(C)CC3)cc(C(F)(F)F)c2)cc1Oc1nc(-c2ccncc2)nc2cc[nH]c12 [III-q-2] | 351 | 594 | 843 |
| Cc1ccc(C(=O)Nc2cc(CN3CCN(C)CC3)cc(C(F)(F)F)c2)cc1Oc1nc(-c2cccnc2)nc2ccn(C)c12 [III-q-3] | 1400 | 1400 | 1380 |
| Cc1ccc(C(=O)Nc2cc(CN3CCN(C)CC3)cc(C(F)(F)F)c2)cc1Oc1nc(-c2ccncc2)nc2ccn(C)c12 [III-q-4] | 901 | 1270 | 1330 |
| Cc1ccc(Oc2nc(-c3ccncc3)nc3cc[nH]c23)cc1C(=O)Nc1cc(CN2CCN(C)CC2)cc(C(F)(F)F)c1 [III-r-2] | 386 | 535 | 4130 |
| Cc1ccc(Oc2nc(-c3cccnc3)nc3ccn(C)c23)cc1C(=O)Nc1cc(CN2CCN(C)CC2)cc(C(F)(F)F)c1 [III-r-3] | 3770 | 2720 | 3650 |
